Earlier results in US10391176B2, “Composition, its preparation and method of use in treating skin disorders” (priority 2016, dated 2019).

solubility in acetone (acetone): freely soluble
solubility in dimethylsulfoxide (dimethylsulfoxide): freely soluble
solubility in methanol (methanol): slightly soluble
solubility in tetrahydrofuran (tetrahydrofuran): freely soluble
solubility in water (water): practically insoluble
Compound: COc1cc(C(=O)NS(=O)(=O)c2ccccc2C)ccc1Cc1cn(C)c2ccc(NC(=O)OC3CCCC3)cc12 [Zafirlukast, 4-(5-cyclopentyloxy-carbonylamino-1-methyl-indol-3-ylmethyl)-3-methoxy-N-o-tolylsulfonylbenzamide]
